Measured values from patent publication US20230295145A1, “PYRROLIDINE DERIVATIVES AND METHODS OF USE” (Genentech, Inc., priority 2020, published 2023).
Where two headings read alike, the source gives them in different places.

Experiments:
Assay type in all cases: cell-based
[1] = tested on: NCI-H23; assay: Cell Viability Assay (CellTiter-Glo); settings: 5 days
Protocol: (§1) Cell lines were cultured in RPMI-1640, 5% fetal bovine serum, and 2 mM glutamine in a humidified incubator maintained at 37° C. with 5% CO2. Cells were assessed with a Vi-CELL Cell Viability Analyzer (Beckman Coulter; Brea, CA); viability of at least 90% was required for screening. A Multidropä Combi Reagent Dispenser (Thermo Scientific; Waltham, MA) was used to plate cells into Falcons^â 384-well, black, clear-bottom plates (Catalog No. 353962; Corning; Tewksbury, MA) using seeding densities previous determined to achieve approximately 80% confluence at the final time point of the assay. The compounds were prepared at 1000× in advance using an Echo 555 liquid handler (Labcyte; Sunnyvale, CA) and stored in −80° C. until the day of compound addition. On the following day, cells were treated with compounds at final assay concentration 1 uM and 10 uM using a Bravo Automated Liquid-Handling Platform (Agilent; Santa Clara, CA). After 5 days, 25 mL CellTiter-Glo^â reagent was added using a MultiFloä Microplate Dispenser (BioTek; Winooski, VT). Cell lysis was induced by mixing for 30 minutes on an orbital shaker; plates were then incubated at room temperature for 10 minutes to stabilize the luminescent signal. Luminescence was read by a 2104 EnVision^â Multilabel Plate Reader (PerkinElmer; Waltham, MA).
(§2) The data was processed using Genedata Screener^â, Version 15 (Genedata; Basel, Switzerland) to assess compound effects on viability. Compound treated wells were normalized to the median value of 14 DMSO control wells on the same 384 well plate.

[2] = target: T1, VHL (Homo sapiens, UniProt P40337); assay: VHL HEK-293 BRET Assay (VHL NanoBRET Target Engagement Assay); settings: HEK 293 RT VHL-NanoLuc stable cells; read-out: IC50
T1 construct: expressed in transfected cells
T1 sequence (P40337 whole entry): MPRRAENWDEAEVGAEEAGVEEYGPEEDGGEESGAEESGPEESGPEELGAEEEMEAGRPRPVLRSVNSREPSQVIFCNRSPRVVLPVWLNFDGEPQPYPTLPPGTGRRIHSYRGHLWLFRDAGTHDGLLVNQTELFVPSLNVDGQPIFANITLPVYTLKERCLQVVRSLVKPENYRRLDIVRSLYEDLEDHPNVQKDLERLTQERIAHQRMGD
Protocol: The VHL NanoBRET™ Target Engagement Assay analyzes the apparent affinity of test compounds for VHL in cells by competitive displacement of a VHL NanoBRET™ tracer reversibly bound to a NanoLuc® VHL fusion protein stably expressed in the cells.
Test compounds were transferred to the assay plate (384 Well White Non-Binding Corning Assay Plates (Corning-3574)) using an Echo 555 Liquid Handler (Labcyte) in 2.5 nL increments and, as appropriate, intermediate stock concentrations of compounds, in order to prepare a titration series. 50 nL of control compound (10 mM; parental unlabeled VHL antagonist; see structure below) and 50 nL of DMSO (negative control) were dispensed into the appropriate control wells. DMSO was backfilled to a final volume of 50 nL as required. 50 nl per well of 1 mM VHL NanoBRET™ Tracer in DMSO (NanoBRET™ Tracer-PEG2-590 (see structure below)) was transferred into each well using an Echo 555 (ultimately yielding a final concentration of 1 uM). HEK 293 RT VHL-NanoLuc® stable cells were cultured in DMEM High Glucose with Pyruvate, 10% fetal bovine serum, 2 mg/mL of Geneticin Selective Antibiotic (50 mg/mL) and 2 mM HEPES (1 M). Cells were seeded in Opti-MEM (Life Technologies-11058-021), 1.7×10^5 cells/mL, 40 μl per well into the assay plate, centrifuged at 500 rpm for 30 seconds and incubated for 2 hours. Max Signal control wells consisted of DMSO only treated wells. Minimum Signal control wells contained of 10 uM parental unlabeled VHL antagonist (control compound—see structure below). 3× Complete Substrate plus Inhibitor Solution was prepared in Opti-MEM (consists of a 1:166 dilution of NanoBRET™ Nano-Glo® Substrate plus a 1:500 dilution of Extracellular NanoLuc® Inhibitor in Opti-MEM), and 20 ul was dispensed into each well of the 384-well plate and centrifuged at 1000 rpm for 1 minute, then incubated for 2 minutes at room temperature. Background Signal control wells were prepared without tracer for background correction steps.
Plates were read using a PerkinElmer Envision Reader (model 2104-0020) equipped with Luminescence option (Mirror: BRET2 Enh (PE Barcode 659), Emission Filter: Omega 610LP (Barcode 504), 2nd Emission Filter: Umbelliferone 460 (Barcode 207), Measurement height: 6.5 mm, Measurement time: 1 s). The raw BRET ratio values were calculated by dividing the acceptor emission value (610 nm) by the donor emission value (460 nm) for each sample. To correct for background, the BRET ratio in the absence of tracer (average of no-tracer control samples) was subtracted from the BRET ratio of each sample. Raw BRET units were converted to milliBRET units (mBU) by multiplying each raw BRET value by 1,000. The normalized NanoBRET™ signal was calculated relative to the Max Signal control wells (DMSO treated control wells) and the Minimum Signal control wells. Percentage inhibition was calculated relative to the Minimum Signal control and Maximum Signal control wells. IC50 values were derived by four parameter curve fitting using the Robust method.

[3] = tested on: ABC-1; assay: Cell Viability Assay (CellTiter-Glo); settings: 5 days
Protocol: as §1, §2

[4] = target: T1, VHL; assay: VHL HEK-293 BRET Assay (VHL NanoBRET Target Engagement Assay); settings: IC50 values measured in the presence of digitonin; HEK 293 RT VHL-NanoLuc stable cells; read-out: IC50 + Digi (μM)*
[5] = tested on: PANC-1; assay: Cell Viability Assay (CellTiter-Glo); settings: 10 μM, 5 days
Protocol: as §1, §2

SMILES | Normalized viability % DMSO ([1]; 1 μM) [% DMSO] | IC50 [2] [nM] | Normalized viability % DMSO ([3]; 10 μM) [% DMSO] | IC50 [4] [µM] | Normalized viability % DMSO [5] [% DMSO] | Normalized viability % DMSO ([1]; 10 μM) [% DMSO] | Normalized viability % DMSO ([3]; 1 μM) [% DMSO]
Cn1c(CCNC(=O)[C@@H]2C[C@@H](O)CN2C(=O)[C@@H](n2cc(C3CC3)nn2)C(C)(C)C)nc2c(F)cccc21 [Compound 1131, (2S,4R)-1-[(2S)-2-(4-cyclopropyltriazol-1-yl)-3,3-dimethyl-butanoyl]-N-[2-(4-fluoro-1-methyl-benzimidazol-2-yl)ethyl]-4-hydroxy-pyrrolidine-2-carboxamide] | 21.7 |  |  |  |  |  | 
CC(C)(C)[C@@H](C(=O)N1C[C@H](O)C[C@H]1C(=O)NCc1ncc(-c2ccccc2)s1)n1cc(C2CC2)nn1 [Compound 140, (2S,4R)-1-[(2S)-2-(4-cyclopropyltriazol-1-yl)-3,3-dimethyl-butanoyl]-4-hydroxy-N-[(5-phenylthiazol-2-yl)methyl]pyrrolidine-2-carboxamide] |  | 10 | 45.3 | 0.0142 |  |  | 
CC(C)(C)[C@@H](C(=O)N1C[C@H](O)C[C@H]1C(=O)NC1CCN(c2ccc(Cl)c(Cl)c2)C1)n1cc(C2CC2)nn1 (stereo partly drawn) [Compound 463, (2S,4R)-1-[(2S)-2-(4-cyclopropyltriazol-1-yl)-3,3-dimethyl-butanoyl]-N-[1-(3,4-dichlorophenyl)pyrrolidin-3-yl]-4-hydroxy-pyrrolidine-2-carboxamide] |  | 3680 |  | 4.86 | 35.6 |  | 
CC(C)(C)[C@@H](C(=O)N1C[C@H](O)C[C@H]1C(=O)NC(CO)c1ccc(Br)c(F)c1)n1cc(C2CC2)nn1 (stereo partly drawn) [Compound 174, (2S,4R)-N-[1-(4-bromo-3-fluoro-phenyl)-2-hydroxy-ethyl]-1-[(2S)-2-(4-cyclopropyltriazol-1-yl)-3,3-dimethyl-butanoyl]-4-hydroxy-pyrrolidine-2-carboxamide] |  | 11.4 | 50.7 | 0.0152 |  |  | 
CNC(=O)[C@@H]1C[C@@H](O)CN1C(=O)[C@@H](n1cc(COc2ccccc2F)nn1)C(C)(C)C [Compound 729, (2S,4R)-1-[(2S)-2-[4-[(2-fluorophenoxy)methyl]triazol-1-yl]-3,3-dimethyl-butanoyl]-4-hydroxy-N-methyl-pyrrolidine-2-carboxamide] | 7.4 | 960 | 35.8 | 1.48 |  |  | 
CC(C)(C)[C@@H](C(=O)N1C[C@H](O)C[C@H]1C(=O)NCC1CCS(=O)(=O)c2ccccc21)n1cc(C2CC2)nn1 (stereo partly drawn) [Compound 420, (2S,4R)-1-[(2S)-2-(4-cyclopropyltriazol-1-yl)-3,3-dimethyl-butanoyl]-N-[(1,1-dioxo-3,4-dihydro-2H-thiochromen-4-yl)methyl]-4-hydroxy-pyrrolidine-2-carboxamide] | 10.8 | 3890 |  | 4.3 |  |  | 
CC(C)(C)[C@@H](C(=O)N1C[C@H](O)C[C@H]1C(=O)NCCCn1cnc2c(N)ncnc21)n1cc(C2CC2)nn1 [Compound 1129, (2S,4R)-N-[3-(6-aminopurin-9-yl)propyl]-1-[(2S)-2-(4-cyclopropyltriazol-1-yl)-3,3-dimethyl-butanoyl]-4-hydroxy-pyrrolidine-2-carboxamide] |  | 17300 | 4.2 | 2.33 |  |  | 
CCc1onc(C)c1CNC(=O)[C@@H]1C[C@@H](O)CN1C(=O)[C@@H](n1cc(C2CC2)nn1)C(C)(C)C [Compound 405, (2S,4R)-1-[(2S)-2-(4-cyclopropyltriazol-1-yl)-3,3-dimethyl-butanoyl]-N-[(5-ethyl-3-methyl-isoxazol-4-yl)methyl]-4-hydroxy-pyrrolidine-2-carboxamide] |  | 2340 | 7.6 | 3.18 |  |  | 
CC[S+]([O-])C1CCCCC1NC(=O)[C@@H]1C[C@@H](O)CN1C(=O)[C@@H](n1cc(C2CC2)nn1)C(C)(C)C (stereo partly drawn) [Compound 554, (2S,4R)-1-[(2S)-2-(4-cyclopropyltriazol-1-yl)-3,3-dimethyl-butanoyl]-N-(2-ethylsulfinylcyclohexyl)-4-hydroxy-pyrrolidine-2-carboxamide] |  | 17200 | 38.2 | 22.2 |  |  | 
CC(C)(C)[C@@H](C(=O)N1C[C@H](O)C[C@H]1C(=O)NCCC1(O)CN(C(c2ccccc2)c2ccccc2)C1)n1cc(C2CC2)nn1 [Compound 449, (2S,4R)-N-[2-(1-benzhydryl-3-hydroxy-azetidin-3-yl)ethyl]-1-[(2S)-2-(4-cyclopropyltriazol-1-yl)-3,3-dimethyl-butanoyl]-4-hydroxy-pyrrolidine-2-carboxamide] |  | 802 |  | 2.17 |  | 43.4 | 
CC(C)(C)[C@@H](C(=O)N1C[C@H](O)C[C@H]1C(=O)NC1CCc2c(Cl)cc(Cl)cc21)n1cc(C2CC2)nn1 (stereo partly drawn) [Compound 169, (2S,4R)-1-[(2S)-2-(4-cyclopropyltriazol-1-yl)-3,3-dimethyl-butanoyl]-N-(4,6-dichloroindan-1-yl)-4-hydroxy-pyrrolidine-2-carboxamide] |  | 1810 |  | 2.93 |  | 39.3 | 
CNC(=O)[C@@H]1C[C@@H](O)CN1C(=O)[C@@H](n1cc(Cn2cnc3cc(C)c(C)cc32)nn1)C(C)(C)C [Compound 914, (2S,4R)-1-[(2S)-2-[4-[(5,6-dimethylbenzimidazol-1-yl)methyl]triazol-1-yl]-3,3-dimethyl-butanoyl]-4-hydroxy-N-methyl-pyrrolidine-2-carboxamide] |  | 5460 |  | 3 |  | 44.5 | 
CN1CC(CCNC(=O)[C@@H]2C[C@@H](O)CN2C(=O)[C@@H](n2cc(C3CC3)nn2)C(C)(C)C)CC1=O (stereo partly drawn) [Compound 236, (2S,4R)-1-[(2S)-2-(4-cyclopropyltriazol-1-yl)-3,3-dimethyl-butanoyl]-4-hydroxy-N-[2-(1-methyl-5-oxo-pyrrolidin-3-yl)ethyl]pyrrolidine-2-carboxamide] | 18.7 |  |  |  |  |  | 
CC(C)(C)[C@@H](C(=O)N1C[C@H](O)C[C@H]1C(=O)NCC12CCCC(C1)C(=O)N2)n1cc(C2CC2)nn1 (stereo partly drawn) [Compound 110, (2S,4R)-1-[(2S)-2-(4-cyclopropyltriazol-1-yl)-3,3-dimethyl-butanoyl]-4-hydroxy-N-[(7-oxo-6-azabicyclo[3.2.1]octan-5-yl)methyl]pyrrolidine-2-carboxamide] | 18.9 |  |  |  |  |  | 
CNC(=O)[C@@H]1C[C@@H](O)CN1C(=O)[C@@H](n1cc(-c2cnc(F)cc2C)nn1)C(C)(C)C [Compound 792, (2S,4R)-1-[(2S)-2-[4-(6-fluoro-4-methyl-3-pyridyl)triazol-1-yl]-3,3-dimethyl-butanoyl]-4-hydroxy-N-methyl-pyrrolidine-2-carboxamide] |  | 1920 | 13.9 | 2.46 |  |  | 
CNC(=O)C1CC(O)CN1C(=O)[C@@H](n1cc(C2CCC(C(=O)OC)CC2)nn1)C(C)(C)C (stereo in doubt) [Compound 829, Methyl 4-[1-[(1S)-1-[(2R,4S)-4-hydroxy-2-(methylcarbamoyl)pyrrolidine-1-carbonyl]-2,2-dimethyl-propyl]triazol-4-yl]cyclohexanecarboxylate] |  | 2910 |  | 5.86 |  |  | 10.6
CC(C)(C)[C@@H](C(=O)N1C[C@H](O)C[C@H]1C(=O)N[C@@H]1C[C@@H](c2ccccc2)Oc2ccccc21)n1cc(C2CC2)nn1 [Compound 343, (2S,4R)-1-[(2S)-2-(4-cyclopropyltriazol-1-yl)-3,3-dimethyl-butanoyl]-4-hydroxy-N-[(2S,4R)-2-phenylchroman-4-yl]pyrrolidine-2-carboxamide] |  | 15.6 | 44.1 | 0.0321 |  |  | 
